Data from patent US20130029928A1 (priority 2010, published 2013).
Like-named read-outs stand apart in the source and are kept apart here.

Assay: Phase I study CXR1002-001: plasma pharmacokinetics (LC-MS/MS)
Type: in vivo, human
Settings: for concentration at 696 h: 696 hr (Day 29)
Source text: PK samples, PD (fasting) samples, blood glucose, and blood triglyceride samples, were taken over a 6-week period.
Dose limiting toxicity (DLT) will be based on the toxicity assessments over the first 3-week period of the repeat dosing schedule. PK samples (single blood sample) were taken on the following basis: • Every 6 weeks during the repeat dosing phase • If dosing is interrupted or stopped, samples will be taken at intervals according to patient convenience • PK sampling for safety evaluation may take place at any time, as clinically indicated
Plasma samples were collected after the single 50 mg dose at the following timepoints: Pre-dose, and then 0.25, 0.5, 0.75, 1, 1.5, 2, 3, 4, 6, 24, 48, and 72 hours after administration and then once weekly at weeks 2, 3, 4, 5, and 6 (days 8, 15, 22, 29, and 36). For patients treated with the weekly repeat dose, plasma samples were collected at the following timepoints: Pre-dose and then 2, 3, 4 and 24 hours after administration for a total of 6 weeks. Thereafter a single sample was collected every 6 weeks for monitoring of exposure during long term treatment. Plasma samples were processed at site and stored at −80° C. prior to batch shipment to the analytical laboratory.

[1] = human, plasma, oral, 50 mg, Patient 001 Dose 50 mg
[2] = human, plasma, oral, 50 mg, Patient 001 Dose 50 mg, read-out: Concentration
[3] = human, plasma, oral, 50 mg, Patient 002 Dose 50 mg
[4] = human, plasma, oral, 50 mg, Patient 002 Dose 50 mg, read-out: Concentration
[5] = human, plasma, oral, 50 mg, Patient 003 Dose 50 mg

Q: What does the source list for `O=C(O)C(F)(F)C(F)(F)C(F)(F)C(F)(F)C(F)(F)C(F)(F)C(F)(F)F` [CXR1002]?
A: maximal plasma level recorded (1200 mg weekly dose over a 5 week period, one patient): 1530 µM; Concentration (Patient 032, 950 mg, person, plasma, 0 hr (pre-dose)): BLQ; oral bioavailability (clinical trials): orally bioavailable; concentration at 168 h (female, human, plasma, oral, Female, plasma, 168 hr (Day 8), read-out: Concentration): 146 µM; concentration at 170 h (female, human, plasma, oral, Female, plasma, 170 hr, read-out: Concentration): 276 µM; concentration at 171 h (female, human, plasma, oral, Female, plasma, 171 hr, read-out: Concentration): 253 µM; concentration at 172 h (female, human, plasma, oral, Female, plasma, 172 hr, read-out: Concentration): 248 µM; concentration at 192 h (female, human, plasma, oral, Female, plasma, 192 hr (Day 9), read-out: Concentration): 246 µM; concentration at 504 h (female, human, plasma, oral, Female, plasma, 504 hr (Day 22), read-out: Concentration): 333 µM; concentration at 506 h (female, human, plasma, oral, Female, plasma, 506 hr, read-out: Concentration): 427 µM; concentration at 507 h (female, human, plasma, oral, Female, plasma, 507 hr, read-out: Concentration): 412 µM; concentration at 528 h (female, human, plasma, oral, Female, plasma, 528 hr (Day 23), read-out: Concentration): 405 µM; concentration at 840 h (female, human, plasma, oral, Female, plasma, 840 hr (Day 36), read-out: Concentration): 434 µM; concentration at 842 h (female, human, plasma, oral, Female, plasma, 842 hr, read-out: Concentration): 461 µM; concentration at 843 h (female, human, plasma, oral, Female, plasma, 843 hr, read-out: Concentration): 457 µM; concentration at 844 h (female, human, plasma, oral, Female, plasma, 844 hr, read-out: Concentration): 482 µM; concentration at 864 h (female, human, plasma, oral, Female, plasma, 864 hr (Day 37), read-out: Concentration): 526 µM; concentration at 0 h [1]: 0 µM; concentration at 0.25 h [1]: 0.35 µM; concentration at 0.5 hr (human, plasma, oral, 50 mg, Patient 001 Dose 50 mg, 0.5 hr): 1.11 µM; concentration at 0.75 hr (human, plasma, oral, 50 mg, Patient 001 Dose 50 mg, 0.75 hr): 9.17 µM; concentration at 1 hr (human, plasma, oral, 50 mg, Patient 001 Dose 50 mg, 1 hr): 14.4 µM; concentration at 1.5 h [1]: 25.7 µM; concentration at 2 h (human, plasma, oral, 50 mg, Patient 001 Dose 50 mg, 2 hr, read-out: Concentration): 22.5 µM; concentration at 3 h [2]: 20.8 µM; concentration at 6 h [1]: 14.7 µM; concentration at 24 h [2]: 13.8 µM; concentration at 48 h [1]: 12.8 µM; concentration at 72 hr (human, plasma, oral, 50 mg, Patient 001 Dose 50 mg, 72 hr): 9.7 µM; concentration at 192 hr (human, plasma, oral, 50 mg, Patient 001 Dose 50 mg, 192 hr (Day 8), read-out: Concentration): 8.54 µM; concentration at 360 hr (human, plasma, oral, 50 mg, Patient 001 Dose 50 mg, 360 hr (Day 15), read-out: Concentration): 8.63 µM; concentration at 528 h (human, plasma, oral, 50 mg, Patient 001 Dose 50 mg, 528 hr (Day 22), read-out: Concentration): 11.6 µM; concentration at 696 h [2]: 10.2 µM; concentration at 864 h (human, plasma, oral, 50 mg, Patient 001 Dose 50 mg, 864 hr (Day 36), read-out: Concentration): 8.89 µM; concentration at 144 day (human, plasma, oral, 50 mg, Patient 001 Dose 50 mg, Day 144): 226 µM; concentration at 179 day (human, plasma, oral, 50 mg, Patient 001 Dose 50 mg, Day 179): 250 µM; concentration at 227 day (human, plasma, oral, 50 mg, Patient 001 Dose 50 mg, Day 227): 308 µM; concentration at 268 day (human, plasma, oral, 50 mg, Patient 001 Dose 50 mg, Day 268): 268 µM; concentration at 0 h [3]: 0 µM; concentration at 0.25 h [3]: 3.06 µM; concentration at 0.5 h (human, plasma, oral, 50 mg, Patient 002 Dose 50 mg, 0.5 hr): 7.62 µM; concentration at 0.75 h (human, plasma, oral, 50 mg, Patient 002 Dose 50 mg, 0.75 hr): 8.39 µM; concentration at 1 h (human, plasma, oral, 50 mg, Patient 002 Dose 50 mg, 1 hr): 8.55 µM; concentration at 1.5 h [3]: 29.8 µM; concentration at 3 h [4]: 22.8 µM; concentration at 4 h (human, plasma, oral, 50 mg, Patient 002 Dose 50 mg, 4 hr, read-out: Concentration): 14.5 µM; concentration at 6 h [3]: 17.5 µM; concentration at 24 h [4]: 14.3 µM; concentration at 48 h [3]: 13.3 µM; concentration at 72 h (human, plasma, oral, 50 mg, Patient 002 Dose 50 mg, 72 hr): 15.6 µM; concentration at 192 h (human, plasma, oral, 50 mg, Patient 002 Dose 50 mg, 192 hr (Day 8), read-out: Concentration): 17.2 µM; concentration at 360 h (human, plasma, oral, 50 mg, Patient 002 Dose 50 mg, 360 hr (Day 15), read-out: Concentration): 18.6 µM; concentration at 528 h (human, plasma, oral, 50 mg, Patient 002 Dose 50 mg, 528 hr (Day 22), read-out: Concentration): 21.5 µM; concentration at 696 h [4]: 21 µM; concentration at 864 h (human, plasma, oral, 50 mg, Patient 002 Dose 50 mg, 864 hr (Day 36), read-out: Concentration): 20.1 µM; concentration at 0 h [5]: 0.14 µM; concentration at 0.25 h [5]: 1.08 µM
